In PubChem BioAssay (NCI):
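Exposure lasted 48 hours, with cells grown in 96-well plates and compounds tested at five concentrations. GI50 is the concentration that inhibits growth by half. TGI: total growth inhibition.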

What was measured:
Assay in all cases: DTP human tumour cell line panel, 48 h
786-0 renal = tested on: 786-0 renal
A498 renal = tested on: A498 renal
A549 NSCLC = tested on: A549 NSCLC
ACHN renal = tested on: ACHN renal
BT-549 breast = tested on: BT-549 breast
CAKI-1 renal = tested on: CAKI-1 renal
CCRF-CEM leukemia = tested on: CCRF-CEM leukemia
COLO 205 colon = tested on: COLO 205 colon
DU-145 prostate = tested on: DU-145 prostate
EKVX NSCLC = tested on: EKVX NSCLC
HCC-2998 colon = tested on: HCC-2998 colon
HCT-116 colon = tested on: HCT-116 colon
HCT-15 colon = tested on: HCT-15 colon
HL-60(TB) leukemia = tested on: HL-60(TB) leukemia
HOP-62 NSCLC = tested on: HOP-62 NSCLC
HOP-92 NSCLC = tested on: HOP-92 NSCLC
HS 578T breast = tested on: HS 578T breast
HT29 colon = tested on: HT29 colon
IGROV1 ovarian = tested on: IGROV1 ovarian
K-562 leukemia = tested on: K-562 leukemia
KM12 colon = tested on: KM12 colon
LOX IMVI melanoma = tested on: LOX IMVI melanoma
M14 melanoma = tested on: M14 melanoma
MALME-3M melanoma = tested on: MALME-3M melanoma
MCF7 breast = tested on: MCF7 breast
MDA-MB-231 breast = tested on: MDA-MB-231 breast
MDA-MB-435 = tested on: MDA-MB-435
MOLT-4 leukemia = tested on: MOLT-4 leukemia
NCI-H226 lung = tested on: NCI-H226 lung
NCI-H23 lung = tested on: NCI-H23 lung
NCI-H460 lung = tested on: NCI-H460 lung
NCI-H522 lung = tested on: NCI-H522 lung
NCI/ADR-RES ovarian = tested on: NCI/ADR-RES ovarian
OVCAR-3 ovarian = tested on: OVCAR-3 ovarian
OVCAR-4 ovarian = tested on: OVCAR-4 ovarian
OVCAR-5 ovarian = tested on: OVCAR-5 ovarian
OVCAR-8 ovarian = tested on: OVCAR-8 ovarian
PC-3 prostate = tested on: PC-3 prostate
RPMI-8226 leukemia = tested on: RPMI-8226 leukemia
RXF 393 renal = tested on: RXF 393 renal
SF-268 CNS = tested on: SF-268 CNS
SF-295 CNS = tested on: SF-295 CNS
SF-539 CNS = tested on: SF-539 CNS
SK-MEL-2 melanoma = tested on: SK-MEL-2 melanoma
SK-MEL-28 melanoma = tested on: SK-MEL-28 melanoma
SK-MEL-5 melanoma = tested on: SK-MEL-5 melanoma
SK-OV-3 ovarian = tested on: SK-OV-3 ovarian
SN12C renal = tested on: SN12C renal
SNB-19 CNS = tested on: SNB-19 CNS
SNB-75 CNS = tested on: SNB-75 CNS
SW-620 colon = tested on: SW-620 colon
T-47D breast = tested on: T-47D breast
TK-10 renal = tested on: TK-10 renal
U251 CNS = tested on: U251 CNS
UACC-257 melanoma = tested on: UACC-257 melanoma
UACC-62 melanoma = tested on: UACC-62 melanoma
UO-31 renal = tested on: UO-31 renal
SR leukemia = tested on: SR leukemia

Q: What does the source list for `COc1ccc2c(c1)CCC1C2CCC2(C)C(NC(=O)CCCCC3CCSS3)CCC12` (stereo not given)?
A: GI50 (786-0 renal): > 100 µM; TGI (786-0 renal): > 100 µM; GI50 (A498 renal): 62.2 µM; TGI (A498 renal): > 100 µM; GI50 (A549 NSCLC): 32.5 µM; TGI (A549 NSCLC): > 100 µM; GI50 (ACHN renal): 27.6 µM; TGI (ACHN renal): > 100 µM; GI50 (BT-549 breast): > 100 µM; TGI (BT-549 breast): > 100 µM; GI50 (CAKI-1 renal): 23.9 µM; TGI (CAKI-1 renal): > 100 µM; GI50 (CCRF-CEM leukemia): 6.26 µM; TGI (CCRF-CEM leukemia): > 100 µM; GI50 (COLO 205 colon): 5.49 µM; TGI (COLO 205 colon): > 100 µM; GI50 (DU-145 prostate): > 100 µM; TGI (DU-145 prostate): > 100 µM; GI50 (EKVX NSCLC): > 100 µM; TGI (EKVX NSCLC): > 100 µM; GI50 (HCC-2998 colon): 30.7 µM; TGI (HCC-2998 colon): > 100 µM; GI50 (HCT-116 colon): 11.2 µM; TGI (HCT-116 colon): > 100 µM; GI50 (HCT-15 colon): 8.21 µM; TGI (HCT-15 colon): > 100 µM; GI50 (HL-60(TB) leukemia): 3.75 µM; TGI (HL-60(TB) leukemia): > 100 µM; GI50 (HOP-62 NSCLC): > 100 µM; TGI (HOP-62 NSCLC): > 100 µM; GI50 (HOP-92 NSCLC): 4.16 µM; TGI (HOP-92 NSCLC): 63.4 µM; GI50 (HS 578T breast): > 100 µM; TGI (HS 578T breast): > 100 µM; GI50 (HT29 colon): 4.3 µM; TGI (HT29 colon): 39.2 µM; GI50 (IGROV1 ovarian): 4.92 µM; TGI (IGROV1 ovarian): > 100 µM; GI50 (K-562 leukemia): 5.81 µM; TGI (K-562 leukemia): > 100 µM; GI50 (KM12 colon): 4.54 µM; TGI (KM12 colon): > 100 µM; GI50 (LOX IMVI melanoma): 32.5 µM; TGI (LOX IMVI melanoma): > 100 µM; GI50 (M14 melanoma): 16.8 µM; TGI (M14 melanoma): > 100 µM; GI50 (MALME-3M melanoma): 92.2 µM; TGI (MALME-3M melanoma): > 100 µM; GI50 (MCF7 breast): 39.7 µM; TGI (MCF7 breast): > 100 µM; GI50 (MDA-MB-231 breast): 14.1 µM; TGI (MDA-MB-231 breast): > 100 µM; GI50 (MDA-MB-435): 9.3 µM; TGI (MDA-MB-435): > 100 µM; GI50 (MOLT-4 leukemia): 4.15 µM; TGI (MOLT-4 leukemia): > 100 µM; GI50 (NCI-H226 lung): > 100 µM; TGI (NCI-H226 lung): > 100 µM; GI50 (NCI-H23 lung): > 100 µM; TGI (NCI-H23 lung): > 100 µM; GI50 (NCI-H460 lung): 4.84 µM; TGI (NCI-H460 lung): 93.3 µM; GI50 (NCI-H522 lung): 9.4 µM; TGI (NCI-H522 lung): > 100 µM; GI50 (NCI/ADR-RES ovarian): > 100 µM; TGI (NCI/ADR-RES ovarian): > 100 µM; GI50 (OVCAR-3 ovarian): 12.6 µM; TGI (OVCAR-3 ovarian): > 100 µM; GI50 (OVCAR-4 ovarian): 23 µM; TGI (OVCAR-4 ovarian): > 100 µM; GI50 (OVCAR-5 ovarian): > 100 µM; TGI (OVCAR-5 ovarian): > 100 µM; GI50 (OVCAR-8 ovarian): > 100 µM; TGI (OVCAR-8 ovarian): > 100 µM; GI50 (PC-3 prostate): 7.18 µM; TGI (PC-3 prostate): > 100 µM; GI50 (RPMI-8226 leukemia): 5.85 µM; TGI (RPMI-8226 leukemia): > 100 µM; GI50 (RXF 393 renal): 27 µM; TGI (RXF 393 renal): > 100 µM; GI50 (SF-268 CNS): 6.85 µM; TGI (SF-268 CNS): > 100 µM; GI50 (SF-295 CNS): > 100 µM; TGI (SF-295 CNS): > 100 µM; GI50 (SF-539 CNS): > 100 µM; TGI (SF-539 CNS): > 100 µM; GI50 (SK-MEL-2 melanoma): 53.5 µM; TGI (SK-MEL-2 melanoma): > 100 µM; GI50 (SK-MEL-28 melanoma): 25.6 µM; TGI (SK-MEL-28 melanoma): > 100 µM; GI50 (SK-MEL-5 melanoma): 3.26 µM; TGI (SK-MEL-5 melanoma): 20.3 µM; GI50 (SK-OV-3 ovarian): 43.8 µM; TGI (SK-OV-3 ovarian): > 100 µM; GI50 (SN12C renal): 16.4 µM; TGI (SN12C renal): > 100 µM; GI50 (SNB-19 CNS): > 100 µM; TGI (SNB-19 CNS): > 100 µM; GI50 (SNB-75 CNS): 18.2 µM; TGI (SNB-75 CNS): > 100 µM; GI50 (SW-620 colon): > 100 µM; TGI (SW-620 colon): > 100 µM; GI50 (T-47D breast): 3.56 µM; TGI (T-47D breast): > 100 µM; GI50 (TK-10 renal): 16.1 µM; TGI (TK-10 renal): > 100 µM; GI50 (U251 CNS): 17.5 µM; TGI (U251 CNS): > 100 µM; GI50 (UACC-257 melanoma): 31.8 µM; TGI (UACC-257 melanoma): > 100 µM; GI50 (UACC-62 melanoma): 15 µM; TGI (UACC-62 melanoma): > 100 µM; GI50 (UO-31 renal): 6.7 µM; TGI (UO-31 renal): > 100 µM

Q: How did the TGI (A498 renal) turn out when `c1ccc2c(c1)ccc1cc3cc(NCCCCNc4ccc5nc6c(ccc7ccccc76)cc5c4)ccc3nc12` was run?
A: The TGI was 2.43 µM.

Q: What about the TGI (A549 NSCLC) of the same molecule?
A: The TGI was 2.84 µM.

Q: And the TGI (ACHN renal)?
A: Its TGI is 2.68 µM.

Q: What about the TGI (BT-549 breast) of the same molecule?
A: The TGI was 4.06 µM.

Q: What about the TGI (CAKI-1 renal) of the same molecule?
A: The TGI was 3.54 µM.

Q: What about the TGI (CCRF-CEM leukemia) of the same molecule?
A: The TGI was 2.29 µM.

Q: What about the TGI (DU-145 prostate) of the same molecule?
A: Its TGI is 2.67 µM.

Q: And the TGI (HCT-15 colon)?
A: The TGI was 2.01 µM.

Q: What about the TGI (HOP-92 NSCLC) of the same molecule?
A: The TGI was 4.09 µM.

Q: And the TGI (HS 578T breast)?
A: The TGI was 4.25 µM.

Q: What about the TGI (IGROV1 ovarian) of the same molecule?
A: The TGI was 2.99 µM.

Q: What about the TGI (K-562 leukemia) of the same molecule?
A: Its TGI is 3.55 µM.

Q: And the TGI (KM12 colon)?
A: The TGI was 0.532 µM.

Q: What about the TGI (LOX IMVI melanoma) of the same molecule?
A: The TGI was 3.43 µM.

Q: What about the TGI (M14 melanoma) of the same molecule?
A: The TGI was 3.29 µM.

Q: And the TGI (MALME-3M melanoma)?
A: Its TGI is 3.16 µM.

Q: What about the TGI (MDA-MB-231 breast) of the same molecule?
A: Its TGI is 0.348 µM.

Q: What about the TGI (MDA-MB-435) of the same molecule?
A: The TGI was 3.45 µM.

Q: And the TGI (MOLT-4 leukemia)?
A: The TGI was 0.418 µM.

Q: What about the TGI (NCI-H226 lung) of the same molecule?
A: Its TGI is 3.24 µM.

Q: And the TGI (NCI-H460 lung)?
A: The TGI was 0.53 µM.

Q: And the TGI (OVCAR-3 ovarian)?
A: The TGI was 4.06 µM.

Q: What about the TGI (OVCAR-8 ovarian) of the same molecule?
A: Its TGI is 0.303 µM.

Q: What about the TGI (PC-3 prostate) of the same molecule?
A: The TGI was 2.67 µM.

Q: And the TGI (RPMI-8226 leukemia)?
A: Its TGI is 1.48 µM.

Q: And the TGI (SF-295 CNS)?
A: The TGI was 3.03 µM.

Q: And the TGI (SF-539 CNS)?
A: The TGI was 2.88 µM.

Q: What about the TGI (SK-MEL-5 melanoma) of the same molecule?
A: The TGI was 2.67 µM.

Q: What about the TGI (SK-OV-3 ovarian) of the same molecule?
A: The TGI was 6.34 µM.

Q: And the TGI (SN12C renal)?
A: The TGI was 2.7 µM.

Q: And the TGI (SR leukemia)?
A: The TGI was 0.043 µM.

Q: What about the TGI (SW-620 colon) of the same molecule?
A: Its TGI is 0.405 µM.

Q: And the TGI (TK-10 renal)?
A: The TGI was 3.18 µM.

Q: What about the TGI (U251 CNS) of the same molecule?
A: Its TGI is 0.374 µM.

Q: What about the TGI (UACC-257 melanoma) of the same molecule?
A: The TGI was 3.11 µM.

Q: What about the TGI (UACC-62 melanoma) of the same molecule?
A: The TGI was 3.04 µM.
